Earlier results, collected in patent US20250275953A1, “VODOBATINIB FOR REDUCING PROGRESSION OF PARKINSON'S DISEASE” (Sun Pharma Advanced Research Company Ltd., priority 2022, published 2025).

Details: nilotinib 150 and 300 mg; cited from earlier work

Cc1cn(-c2cc(NC(=O)c3ccc(C)c(Nc4nccc(-c5cccnc5)n4)c3)cc(C(F)(F)F)c2)cn1 [Nilotinib, nilotinib]
efficacy in Parkinson's disease patients: not efficacious
